Laboratory results: patent publication US6355799B1, “Substituted benzene compounds, process for their preparation, and herbicidal and defoliant compositions containing them” (ISK Americas Incorporated, priority 1997, dated 2002)

Assays:
Type in all cases: in vivo
[1] = tested on: upland rice (Oryza sp., var. Tebonnet, RICE); assay: Pre-emerge test, crop safety; details: rating scale 0-100, 14 days after application
Method in brief: (§1)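 Herbicidal damage is scored 0 (none) to 100 (complete plant death) two weeks after a simulated field spray. Rates span 15–1000 g ai/ha, delivered in acetone at 187 l/ha. For post-emergence treatments, plants have 2–3 leaves and the spray carries 0.25% v/v non-ionic surfactant.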

[2] = tested on: field corn (Zea mays L., var. Dekalb 535, CORN); assay: Pre-emerge test, crop safety; details: rating scale 0-100, 14 days after application
Method in brief: as §1

[3] = tested on: redroot pigweed (Amaranthus retroflexus, AMARE); assay: Pre-emerge test, greenhouse herbicide activity screening; details: rating scale 0-100, 14 days after application
Method in brief: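 Compounds in acetone were track-sprayed at 15-1000 g ai/ha (187 l/ha) on sandy loam pots: pre-emerge one day after seeding, post-emerge at 2-3 leaf stage with 0.25% v/v non-ionic surfactant. Phytotoxicity was rated 14 days later on a 0 (no damage) to 100 (complete death) scale.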

[4] = tested on: upland rice (Oryza sp., var. Tebonnet, RICE); assay: Post-emerge test, crop safety; details: rating scale 0-100 (0 no damage, 100 complete death), 14 days after application
Method in brief: as §1

[5] = tested on: field corn (Zea mays L., var. Dekalb 535, CORN); assay: Post-emerge test, crop safety; details: rating scale 0-100 (0 no damage, 100 complete death), 14 days after application
Method in brief: as §1

[6] = tested on: sicklepod (Cassia obtusifolia, CASOB); assay: Pre-emerge test, greenhouse herbicide activity screening; details: rating scale 0-100, 14 days after application
Method in brief: as §1

[7] = tested on: lambsquarters (Chenopodium album, CHEAL); assay: as above; details: rating scale 0-100, 14 days after application
Method in brief: as §1

[8] = tested on: johnsongrass (Sorghum halepense, SORHA); assay: as above; details: rating scale 0-100, 14 days after application
Method in brief: as §1

[9] = tested on: velvetleaf (Abutilon theophrasti, ABUTH); assay: as above; details: rating scale 0-100, 14 days after application
Method in brief: as §1

[10] = tested on: barnyardgrass (Echinochloa crus-galli, ECHCG); assay: as above; details: rating scale 0-100, 14 days after application
Method in brief: as §1

[11] = tested on: large crabgrass (Digitaria sanguinalis, DIGSA); assay: as above; details: rating scale 0-100, 14 days after application
Method in brief: as §1

[12] = tested on: ivyleaf morningglory (Ipomoea hederacea, IPOHE); assay: as above; details: rating scale 0-100, 14 days after application
Method in brief: as §1

[13] = tested on: green foxtail (Setaria viridis, SETVI); assay: as above; details: rating scale 0-100, 14 days after application
Method in brief: as §1

[14] = tested on: sicklepod (Cassia obtusifolia, CASOB); assay: Post-emerge test, greenhouse herbicide activity screening; details: rating scale 0-100 (0 no damage, 100 complete death), 14 days after application
Method in brief: as §1

[15] = tested on: lambsquarters (Chenopodium album, CHEAL); assay: as above; details: rating scale 0-100 (0 no damage, 100 complete death), 14 days after application
Method in brief: as §1

[16] = tested on: johnsongrass (Sorghum halepense, SORHA); assay: as above; details: rating scale 0-100 (0 no damage, 100 complete death), 14 days after application
Method in brief: as §1

[17] = tested on: velvetleaf (Abutilon theophrasti, ABUTH); assay: as above; details: rating scale 0-100 (0 no damage, 100 complete death), 14 days after application
Method in brief: as §1

[18] = tested on: redroot pigweed (Amaranthus retroflexus, AMARE); assay: as above; details: rating scale 0-100 (0 no damage, 100 complete death), 14 days after application
Method in brief: as §1

[19] = tested on: common ragweed (Ambrosia artemisizfolia L., AMBEL); assay: as above; details: rating scale 0-100 (0 no damage, 100 complete death), 14 days after application
Method in brief: as §1

[20] = tested on: barnyardgrass (Echinochloa crus-galli, ECHCG); assay: as above; details: rating scale 0-100 (0 no damage, 100 complete death), 14 days after application
Method in brief: as §1

[21] = tested on: large crabgrass (Digitaria sanguinalis, DIGSA); assay: as above; details: rating scale 0-100 (0 no damage, 100 complete death), 14 days after application
Method in brief: as §1

[22] = tested on: ivyleaf morningglory (Ipomoea hederacea, IPOHE); assay: as above; details: rating scale 0-100 (0 no damage, 100 complete death), 14 days after application
Method in brief: as §1

[23] = tested on: green foxtail (Setaria viridis, SETVI); assay: as above; details: rating scale 0-100 (0 no damage, 100 complete death), 14 days after application
Method in brief: as §1

COc1c(Cl)cc(F)c(-n2c(=O)cc(C(F)(F)F)n(C)c2=O)c1CC(Cl)C(=O)OCCC#N (stereo not shown) [14-29]
Pre-emerge phytotoxicity rating, crop damage RICE ([1]; 63 g ai/ha): 0 | Pre-emerge phytotoxicity rating, crop damage RICE ([1]; 250 g ai/ha): 20 | Pre-emerge phytotoxicity rating, crop damage CORN ([2]; 63 g ai/ha): 0 | Pre-emerge phytotoxicity rating, crop damage CORN ([2]; 250 g ai/ha): 10 | Pre-emerge herbicidal activity, phytotoxicity rating AMARE ([3]; 63 g ai/ha): 20 | Pre-emerge herbicidal activity, phytotoxicity rating AMARE ([3]; 250 g ai/ha): 95 | Post-emerge phytotoxicity rating RICE (crop damage) ([4]; Rate 63 g ai/ha): 0 | Post-emerge phytotoxicity rating RICE (crop damage) ([4]; Rate 250 g ai/ha): 10 | Post-emerge phytotoxicity rating CORN (crop damage) ([5]; Rate 63 g ai/ha): 15 | Post-emerge phytotoxicity rating CORN (crop damage) ([5]; Rate 250 g ai/ha): 50 | Pre-emerge herbicidal activity, phytotoxicity rating CASOB ([6]; 63 g ai/ha): 0 | Pre-emerge herbicidal activity, phytotoxicity rating CASOB ([6]; 250 g ai/ha): 0 | Pre-emerge herbicidal activity, phytotoxicity rating CHEAL ([7]; 63 g ai/ha): 0 | Pre-emerge herbicidal activity, phytotoxicity rating CHEAL ([7]; 250 g ai/ha): 50 | Pre-emerge herbicidal activity, phytotoxicity rating SORHA ([8]; 63 g ai/ha): 0 | Pre-emerge herbicidal activity, phytotoxicity rating SORHA ([8]; 250 g ai/ha): 0 | Pre-emerge herbicidal activity, phytotoxicity rating ABUTH ([9]; 63 g ai/ha): 0 | Pre-emerge herbicidal activity, phytotoxicity rating ABUTH ([9]; 250 g ai/ha): 80 | Pre-emerge herbicidal activity, phytotoxicity rating ECHCG ([10]; 63 g ai/ha): 0 | Pre-emerge herbicidal activity, phytotoxicity rating ECHCG ([10]; 250 g ai/ha): 0 | Pre-emerge herbicidal activity, phytotoxicity rating DIGSA ([11]; 63 g ai/ha): 0 | Pre-emerge herbicidal activity, phytotoxicity rating DIGSA ([11]; 250 g ai/ha): 50 | Pre-emerge herbicidal activity, phytotoxicity rating IPOHE ([12]; 63 g ai/ha): 0 | Pre-emerge herbicidal activity, phytotoxicity rating IPOHE ([12]; 250 g ai/ha): 0 | Pre-emerge herbicidal activity, phytotoxicity rating SETVI ([13]; 63 g ai/ha): 0 | Pre-emerge herbicidal activity, phytotoxicity rating SETVI ([13]; 250 g ai/ha): 0 | Post-emerge Herbicidal Activity, phytotoxicity rating CASOB ([14]; Rate 63 g ai/ha): 0 | Post-emerge Herbicidal Activity, phytotoxicity rating CASOB ([14]; Rate 250 g ai/ha): 40 | Post-emerge Herbicidal Activity, phytotoxicity rating CHEAL ([15]; Rate 63 g ai/ha): 30 | Post-emerge Herbicidal Activity, phytotoxicity rating CHEAL ([15]; Rate 250 g ai/ha): 60 | Post-emerge Herbicidal Activity, phytotoxicity rating SORHA ([16]; Rate 63 g ai/ha): 50 | Post-emerge Herbicidal Activity, phytotoxicity rating SORHA ([16]; Rate 250 g ai/ha): 70 | Post-emerge Herbicidal Activity, phytotoxicity rating ABUTH ([17]; Rate 63 g ai/ha): 50 | Post-emerge Herbicidal Activity, phytotoxicity rating ABUTH ([17]; Rate 250 g ai/ha): 100 | Post-emerge Herbicidal Activity, phytotoxicity rating AMARE ([18]; Rate 63 g ai/ha): 90 | Post-emerge Herbicidal Activity, phytotoxicity rating AMARE ([18]; Rate 250 g ai/ha): 100 | Post-emerge Herbicidal Activity, phytotoxicity rating AMBEL ([19]; Rate 63 g ai/ha): 100 | Post-emerge Herbicidal Activity, phytotoxicity rating AMBEL ([19]; Rate 250 g ai/ha): 100 | Post-emerge Herbicidal Activity, phytotoxicity rating ECHCG ([20]; Rate 63 g ai/ha): 100 | Post-emerge Herbicidal Activity, phytotoxicity rating ECHCG ([20]; Rate 250 g ai/ha): 100 | Post-emerge Herbicidal Activity, phytotoxicity rating DIGSA ([21]; Rate 63 g ai/ha): 70 | Post-emerge Herbicidal Activity, phytotoxicity rating DIGSA ([21]; Rate 250 g ai/ha): 95 | Post-emerge Herbicidal Activity, phytotoxicity rating IPOHE ([22]; Rate 63 g ai/ha): 80 | Post-emerge Herbicidal Activity, phytotoxicity rating IPOHE ([22]; Rate 250 g ai/ha): 80 | Post-emerge Herbicidal Activity, phytotoxicity rating SETVI ([23]; Rate 63 g ai/ha): 20 | Post-emerge Herbicidal Activity, phytotoxicity rating SETVI ([23]; Rate 250 g ai/ha): 70
